Assay results taken from the supplement of paper PMC8149375.

Key:
Details in all cases: treatment: drug alone; 5 days
[1] = system: A498; assay: minimum viability across doses, drug alone, relative to DMSO (fraction); higher = less growth inhibition
Protocol: (§1)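 Primary HTS: 8 RCC cell lines treated with 8 doses (up to 10 uM) of each library drug alone for 5 days; viability read by CellTiter-Glo and normalised to DMSO. GI50 was fitted with XLfit (4-parameter), AUC is the area under the dose-response curve, and minimum viability is the lowest fraction of DMSO viability across doses.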

[2] = system: 786-O; assay: as above
Protocol: as §1

[3] = system: UO-31; assay: as above
Protocol: as §1

[4] = system: TK-10; assay: as above
Protocol: as §1

[5] = system: CAKI-1; assay: as above
Protocol: as §1

[6] = system: SN12C; assay: as above
Protocol: as §1

[7] = system: 769-P; assay: as above
Protocol: as §1

[8] = system: ACHN; assay: as above
Protocol: as §1

[9] = system: A498; assay: AUC of dose-response viability curve, drug alone (arbitrary (AUC of normalised viability)); higher = less growth inhibition
Protocol: as §1

[10] = system: 786-O; assay: as above
Protocol: as §1

[11] = system: UO-31; assay: as above
Protocol: as §1

[12] = system: TK-10; assay: as above
Protocol: as §1

[13] = system: CAKI-1; assay: as above
Protocol: as §1

[14] = system: SN12C; assay: as above
Protocol: as §1

[15] = system: 769-P; assay: as above
Protocol: as §1

[16] = system: ACHN; assay: as above
Protocol: as §1

[17] = system: A498; assay: GI50, drug alone; higher = less potent
Protocol: as §1

[18] = system: 786-O; assay: GI50, drug alone; higher = less potent
Protocol: as §1

[19] = system: UO-31; assay: GI50, drug alone; higher = less potent
Protocol: as §1

[20] = system: TK-10; assay: GI50, drug alone; higher = less potent
Protocol: as §1

[21] = system: CAKI-1; assay: GI50, drug alone; higher = less potent
Protocol: as §1

[22] = system: SN12C; assay: GI50, drug alone; higher = less potent
Protocol: as §1

[23] = system: 769-P; assay: GI50, drug alone; higher = less potent
Protocol: as §1

[24] = system: ACHN; assay: GI50, drug alone; higher = less potent
Protocol: as §1

| GI50, drug alone [18] | GI50, drug alone [24] | SMILES | minimum viability across doses [1] | minimum viability across doses [2] | minimum viability across doses [3] | minimum viability across doses [4] | minimum viability across doses [5] | minimum viability across doses [6] | minimum viability across doses [7] | minimum viability across doses [8] | AUC of dose-response viability curve [9] | AUC of dose-response viability curve [10] | AUC of dose-response viability curve [11] | AUC of dose-response viability curve [12] | AUC of dose-response viability curve [13] | AUC of dose-response viability curve [14] | AUC of dose-response viability curve [15] | AUC of dose-response viability curve [16] | GI50, drug alone [17] | GI50, drug alone [19] | GI50, drug alone [20] | GI50, drug alone [21] | GI50, drug alone [22] | GI50, drug alone [23] |
| --- | --- | --- | --- | --- | --- | --- | --- | --- | --- | --- | --- | --- | --- | --- | --- | --- | --- | --- | --- | --- | --- | --- | --- | --- |
| 221 nM | 857 nM | O=C(NOC[C@H](O)CO)c1ccc(F)c(F)c1Nc1ccc(I)cc1F | 0.455 | 0.373 | 0.257 | 0.348 | 0.161 | 0.389 | 0.282 | 0.359 | 2.54 | 1.88 | 2.63 | 2.1 | 1.95 | 2.31 | 2.27 | 2.15 | 3710 nM | 3240 nM | 848 nM | 320 nM | 2340 nM | 928 nM |
| > 10000 nM | > 10000 nM | COc1cccc(-c2cc(=O)c3ccccc3o2)c1N | 1.03 | 0.69 | 1.36 | 0.817 | 0.83 | 0.873 | 0.903 | 0.861 | 4.28 | 2.79 | 5.36 | 3.09 | 3.19 | 3.4 | 3.39 | 3.35 | > 10000 nM | > 10000 nM | > 10000 nM | > 10000 nM | > 10000 nM | > 10000 nM |
| 539 nM | 1670 nM | O=C1NCCc2[nH]c(-c3ccncc3)cc21 | 0.0125 | 0.00414 | 0.00654 | 0.188 | 0.12 | 0.0279 | 0.75 | 0.0193 | 3.22 | 2.22 | 3.43 | 2.88 | 3.31 | 3.27 | 3.24 | 2.7 | 3530 nM | 2460 nM | 3620 nM | 4960 nM | 3680 nM | > 10000 nM |
| 163 nM | 179 nM | COc1ccc(-c2cc3c(C)nc(N)nc3n([C@H]3CC[C@H](OCCO)CC3)c2=O)cn1 | 0.193 | 0.00335 | 0.00736 | 0.0289 | 0.0249 | 0.0766 | 0.0177 | 0.067 | 2.91 | 1.76 | 2.06 | 1.72 | 1.78 | 1.98 | 2.05 | 1.79 | 1020 nM | 255 nM | 153 nM | 206 nM | 291 nM | 386 nM |
| 27.5 nM | 180 nM | OCc1ccc(-c2ccc(-c3ccc(CO)s3)o2)s1 | 0.419 | 0.00113 | 0.0063 | 0.032 | 0.00454 | 0.0662 | 0.056 | 0.0234 | 3.4 | 1.04 | 2.33 | 1.03 | 0.628 | 2.29 | 1.27 | 1.76 | 7460 nM | 389 nM | 29.4 nM | 11.2 nM | 582 nM | 42.7 nM |

Further lines, the molecule ahead of its results:

| SMILES | GI50, drug alone [18] | GI50, drug alone [24] | minimum viability across doses [1] | minimum viability across doses [2] | minimum viability across doses [3] | minimum viability across doses [4] | minimum viability across doses [5] | minimum viability across doses [6] | minimum viability across doses [7] | minimum viability across doses [8] | AUC of dose-response viability curve [9] | AUC of dose-response viability curve [10] | AUC of dose-response viability curve [11] | AUC of dose-response viability curve [12] | AUC of dose-response viability curve [13] | AUC of dose-response viability curve [14] | AUC of dose-response viability curve [15] | AUC of dose-response viability curve [16] | GI50, drug alone [17] | GI50, drug alone [19] | GI50, drug alone [20] | GI50, drug alone [21] | GI50, drug alone [22] | GI50, drug alone [23] |
| --- | --- | --- | --- | --- | --- | --- | --- | --- | --- | --- | --- | --- | --- | --- | --- | --- | --- | --- | --- | --- | --- | --- | --- | --- |
| Cc1[nH]c(/C=C2\C(=O)Nc3ccc(S(=O)(=O)Cc4c(Cl)cccc4Cl)cc32)c(C)c1C(=O)N1CCC[C@@H]1CN1CCCC1 | 4160 nM | 3830 nM | 0.0127 | 0.0112 | 0.0156 | 0.00282 | 0.00618 | 0.00551 | 0.00582 | 0.00233 | 3.88 | 2.86 | 4.41 | 3.12 | 3.17 | 2.93 | 2.89 | 3.18 | 8150 nM | > 10000 nM | 4440 nM | 3830 nM | 4020 nM | 4020 nM |
| N#CC[C@H](C1CCCC1)n1cc(-c2ncnc3[nH]ccc23)cn1 | 8760 nM | > 10000 nM | 1.24 | 0.433 | 1.25 | 0.833 | 0.965 | 0.945 | 0.876 | 0.779 | 4.75 | 3.06 | 4.92 | 3.2 | 3.82 | 3.53 | 3.4 | 3.14 | > 10000 nM | > 10000 nM | > 10000 nM | > 10000 nM | > 10000 nM | > 10000 nM |
| CN(C)C1CCN(C(=O)c2ccc(NC(=O)Nc3ccc(-c4nc(N5CCOCC5)nc(N5CCOCC5)n4)cc3)cc2)CC1 | 130 nM | 990 nM | 0.162 | 0.111 | 0.0116 | 0.133 | 0.0321 | 0.112 | 0.162 | 0.167 | 1.83 | 1.73 | 2.48 | 2.09 | 2.56 | 1.39 | 3.1 | 2.66 | 93.2 nM | 451 nM | 472 nM | 1180 nM | 50 nM | 5330 nM |
| CCN(CC)CCCCNc1ncc2cc(-c3cc(OC)cc(OC)c3)c(NC(=O)NC(C)(C)C)nc2n1 | 2360 nM | 779 nM | 0.265 | 0.00314 | 0.128 | 0.348 | 0.074 | 0.338 | 0.461 | 0.0868 | 3.77 | 2.06 | 3.7 | 2.69 | 2.27 | 2.73 | 3.21 | 2.2 | 6940 nM | 7930 nM | 4780 nM | 614 nM | 8230 nM | 9270 nM |
| CC(C)CC(=O)Nc1n[nH]c2c1CN(C(=O)C1CCN(C)CC1)C2(C)C | 120 nM | 276 nM | 0.00722 | 0.0023 | 0.00653 | 0.174 | 0.0863 | 0.0129 | 0.189 | 0.0324 | 2.94 | 1.4 | 3 | 2.7 | 2.75 | 1.9 | 3.01 | 1.92 | 1480 nM | 1060 nM | 3080 nM | 1770 nM | 262 nM | 4340 nM |
